# Entries after “also recorded” stand apart in the source; their conditions may differ. Structures can show the parent of a compound that is named as a salt.
# Experiments:
# mossy fibers = assay: Pharmacology: SHG from mossy fibers of acute hippocampal slices after cytoskeleton-depolymerizing drugs; assay type: cell-based, rat; conditions: for Effect on SHG from mossy fibers compared to the control: cytochalasin D 1 μM or nocodazole 25 μM, solvent control
# From the text: SHG and TPF microscopy were simultaneously performed on either a Bio-Rad MRC 1024 or Radiance scan head on a modified inverted Olympus IX-70 microscope (FIG. 1). The excitation source was a mode-locked Ti:Sapphire laser (˜100 fs pulses at 80 MHz) (Spectra-Physics) pumped by a 5 W solid state Millennia laser (Spectra-Physics). The laser polarization was controlled via a Berek polarization compensator (New Focus, San Jose, Calif.) and the beam focused into the sample with one of the following (overfilled back aperture) objectives: Zeiss C-Apochromat 10×/0.45 NA, Olympus UApo 20×/0.7 NA, Zeiss Fluar 20×/0.75 NA, Olympus UApo 40×/1.15 NA, Zeiss Fluar 40×/1.3 NA. The resultant SHG was collected in the transmitted (forward) direction with an Olympus XLUMPlanFl 20×/0.95 NA objective, while the TPF was epi-collected through the excitation objective. A combination of dichroic mirrors, band-pass and blue-glass filters (Chroma Technology, Brattleboro, Vt.) and polarization analyzers (Newport) separated the signals for detection with Bialkali photo-multiplier tubes (PMTs) (Hammamatsu). The excitation wavelength, average excitation intensity (<I>) at the sample, and two-photon 1/e radial Gaussian beam waist approximation (w) (Richards et al., Proc Royal Soc London Series A-Mathematical Physical Sciences 253:358-379 (1959), which is hereby incorporated by reference in its entirety) are given with the figures. The average power at the sample is (<I>·π·w^2). The images are temporally summed over several scans at dwell times ˜10-100 μs/μm^2. Confocal imaging was performed on the same microscope, but using an argon-krypton laser for excitation. […]
# The slices were transferred from the static incubation bath to a static ASCF bath on the microscope stage. […] The average intensities from the three groups were calculated and compared for statistical significance with a T-test.
# [1] = test system: neurons in the hippocampal region; assay: SHG line scan recording of membrane potential in dye-filled neurons of acute brain slices; assay type: cell-based, rat; conditions: neurons filled with dye via patch pipette, ~1060 nm/~300 fs laser pulses, voltage steps at the soma
# From the text: SHG microscopy is emerging as a powerful new method to optically record membrane potential changes of active neurons. […] This technique has been applied to acute rat brain slices by patch clamping and filling neurons in the hippocampal region with the dye FM4-64. […] The SHG signal emanates from the plasma membrane with little background from intra- or extracellular regions. […] Additionally, it has been shown that a backward propagating SHG signal exists (Forward/Backward ratio ˜6).
# Repeated line scanning of the SHG signal was used to optically record action potentials (signal to noise ratio (S/N) ˜5-8 by temporal averaging of ˜50 line scans) on somatic membranes. Voltage steps were applied at the soma and the SHG response was recorded in the dendritic arbor >100 μm deep in slice. Dendritic spines were clearly visible, possibly making the recording of membrane potential transients from these compartments feasible. […] The line scan averaging necessary to increase S/N was accomplished in minutes. […] In addition to patch clamping, it was shown that extracellular micropipette pressure injection of the dye into hippocampal cell layers leads to SHG labeling of many tens of neurons.
# cultured Aplysia neurons = assay: SHG line scan recording of Vm in dye-stained cultured Aplysia neurons under voltage clamp; assay type: cell-based, Aplysia californica; conditions: 8 μM dye extracellular perfusion, 940 nm excitation, two-electrode voltage clamp
# Method: Abdominal and cerebral ganglia from up to 15 different 5-10 g Aplysia californica were dissociated and cultured with like ganglia (i.e., abdominal with abdominal, cerebral with cerebral) according to Banker and Goslin (i.e., Banker et al., Culturing Nerve Cells, 2nd Edition, Cambridge, Mass.: MIT Press (1998), which is hereby incorporated by reference in its entirety). The cultures were grown in MatTek glass bottom dishes (MatTek Corp., Ashland, Mass.) at 17-18 C. For recordings, 4 to 14 day old cultures were used.
# For staining and imaging, 4-[[4-(dihexylamino)phenyl]]ethynyl]-1-(4-sulfobutyl)pyridinium, inner salt (“DHPESBP”) (“Molecule B” from Moreaux et al., “Electro-Optic Response of Second-Harmonic Generation Membrane Potential Sensors,” Optics Letters 28:625-627 (2003), which is hereby incorporated by reference in its entirety) was used, because of its proven fast (<150 μs) response to Vm. SHG from giant unilamellar vesicles stained with this molecule was sensitive to Vm on fast time scales through an electrochromic (rather than reorientational) mechanism (Moreaux et al., “Electro-Optic Response of Second-Harmonic Generation Membrane Potential Sensors,” Optics Letters 28:625-627 (2003), which is hereby incorporated by reference in its entirety). […]
# [2] = electrochromic mechanism; from Moreaux et al., Optics Letters 28:625-627 (2003); cited from earlier work
smiles,measurement,setting,value
"COC(=O)Nc1nc2ccc(C(=O)c3cccs3)cc2[nH]1 [nocodazole, Nocodazole]","SHG from the mossy fibers after addition of the drug, relative to its original value","mossy fibers; continuous treatment, nocodazole 25 μM, imaged for 70 min, 34° C., 4 slices",~39%
same,Effect on SHG from mossy fibers compared to the control,mossy fibers,drastic
"CCN(CC)c1ccc(C=CC=CC=Cc2cc[n+](CCC[N+](CC)(CC)CC)cc2)cc1.[Br-].[Br-] [FM4-64, N-(3-triethylammoniumpropyl)-4-(6-(4-(diethylamino)phenyl)hexatrienyl)pyridinium dibromide]",SHG signal linear response to membrane potential,[1],~7.7 %/100 mV
"CCCCCCN(CCCCCC)c1ccc(C#Cc2cc[n+](CCCCS(=O)(=O)[O-])cc2)cc1 [DHPESBP, 4-[[4-(dihexylamino)phenyl]ethynyl]-1-(4-sulfobutyl)pyridinium, inner salt]",SHG signal change as a function of change in membrane potential (linear response),cultured Aplysia neurons,~6 %/100 mV
same,Response time of SHG to Vm,[2],< 150 μs
C=C1[C@@H](C)[C@H]2[C@H](Cc3ccccc3)NC(=O)[C@]23[C@H](OC(C)=O)/C=C/[C@@](C)(O)C(=O)[C@@H](C)C/C=C/[C@H]3[C@@H]1O [Cytochalasin D],Effect on SHG from mossy fibers compared to the control,mossy fibers,did not affect the SHG; also recorded: no significant effect

# — US20050259249A1, “Nonlinear optical detection of fast cellular electrical activity” (priority 2004, published 2005)
